Data set [1] deals with human liver cell line (Chang liver).
For another data set, the system named is DBA/1 mice. Briefly: Type II collagen arthritis mouse model (visual inflammation, rear paw swelling). Format: in vivo. The following applies: for No Mice on day indicated (visual evidence of inflammation), Day 30 / No Mice on day indicated (visual evidence of inflammation), Day 37 / No Mice on day indicated (visual evidence of inflammation), Day 44 / Ave. thickness of rear paws (mm) over days 30-44, Treated: Table IIA; for No Mice on day indicated (visual evidence of inflammation), Day 30 / No Mice on day indicated (visual evidence of inflammation), Day 37 / No Mice on day indicated (visual evidence of inflammation), Day 44 / No mice affected on day indicated (visual evidence of inflammation), Day 30 / No mice affected on day indicated (visual evidence of inflammation), Day 37 / No mice affected on day indicated (visual evidence of inflammation), Day 44: affected mice/mice in group; for No Mice on day indicated (visual evidence of inflammation), Day 30: dose (mg/kg) per compound as in Dose column; for No Mice on day indicated (visual evidence of inflammation), Day 37 / No Mice on day indicated (visual evidence of inflammation), Day 44 / No mice affected on day indicated (visual evidence of inflammation), Day 30: dose per compound as in Dose column; for Avg. thickness of rear paws (mm) over days 30-44, Treated / No mice affected on day indicated (visual evidence of inflammation), Day 30 / No mice affected on day indicated (visual evidence of inflammation), Day 37 / No mice affected on day indicated (visual evidence of inflammation), Day 44: Table IIB; for Avg. thickness of rear paws (mm) over days 30-44, Treated / Ave. thickness of rear paws (mm) over days 30-44, Treated: caliper. An excerpt: The following data illustrate administration to mice of several deazaaminopterin compounds of the invention and methotrexate in the evaluation of anti-inflammatory activity. The data are presented as two separate observations, the visually observed presence of inflammation in the mouse, and the caliper-measured degree of swelling of the rear paws of the mouse.
The efficacy evaluation used a mouse model of inflammatory disease that occurs in response to an antigenic challenge with Type II collagen [J. S. Courtenay et al., Nature, 283, 666-668 (1980)].
The fundamental aspects of the model allow it to serve as a representative presentation of human disease. The parallels between the known aspects of the mouse model and rheumatoid arthritis include a humoral response in which antibodies are produced to an antigen that is present in the joint tissue and the antigenic challenge is accompanied by cell-mediated aspects of immunity. The resultant inflammation of the joint tissue yields facets of periostitis, synovial lining hyperplasia, degradation of bone and cartilage and pannus and new bone formation.
The basic elements of the model included the immunization of DBA/1 mice with a suspension of fetal bovine Type II collagen (1 mg/ml) prepared in complete Freund's adjuvant. The primary injection was given using 0.1 ml of the collagen emulsion giving a total of 0.1 mg of Type II collagen per mouse. The animals were then given a booster injection of Type II collagen (100 µg in 0.01 M acetic acid ) on day 21 by intraperitoneal injection.
Typically, in this model the untreated positive control animals have an incidence of arthritis ranging from 90 to 100% of injected animals at day 44.
The effect of methotrexate and test compounds on the extent of inflammation was determined by direct analysis of paw swelling using caliper measurements. The results are presented in Table IIA, and show a direct correlation between the decrease in the number of animals having disease and a decrease in the extent of inflammation, as determined by paw swelling. Table IIA […]

A further data set deals with L. casei. The following applies: folate dependent bacteria; cited from earlier work.
The test system of the next data set is S. faecium. The following applies: folate dependent bacteria; cited from earlier work.
Data set [2] relates to L1210 murine leukemia cells. The following applies: cited from earlier work.
The next data set concerns P388 leukemia. As to conditions: against P388 leukemia in BDF1 mice; cited from earlier work.
Data set [3] addresses T1, bovine liver dihydrofolate reductase (Bos taurus, UniProt P00376).
T1 construct: host or cells: bovine liver
T1 sequence (P00376 1-187): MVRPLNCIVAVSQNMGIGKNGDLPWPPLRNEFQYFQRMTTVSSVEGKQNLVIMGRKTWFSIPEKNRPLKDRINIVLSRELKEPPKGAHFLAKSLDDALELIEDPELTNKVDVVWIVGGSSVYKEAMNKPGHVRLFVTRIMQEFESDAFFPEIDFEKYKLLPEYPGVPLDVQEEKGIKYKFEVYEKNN
As to conditions: cited from earlier work.

For another data set, the system named is L1210. As to conditions: against L1210 in BDF1 mice; cited from earlier work.
The mark [4] stands for this setting: 30 day measurement (first value).
Setting [5] is: 44 day measurement (second value).

Regarding `CN(Cc1cnc2nc(N)nc(N)c2n1)c1ccc(C(=O)N[C@@H](CCC(=O)O)C(=O)O)cc1` [MTX, methotrexate, reference compound], in data set [1], the “Ratio Of Cytotoxic Potency Versus Methotrexate For Inhibition Of Human Liver Cell Growth In Culture” value was 1.00. Also, in the data set with DBA/1 mice, the “No Mice on day indicated (visual evidence of inflammation), Day 30” value (“No Mice on day indicated … Day 30” below) is listed as 1/22; the “No Mice on day indicated (visual evidence of inflammation), Day 37” value (“No Mice on day indicated … Day 37” for short) was 1/22; the “No Mice on day indicated (visual evidence of inflammation), Day 44” value (“No Mice on day indicated … Day 44” below) is on record as 6/22; the “No mice affected on day indicated (visual evidence of inflammation), Day 30” value (shortened to “No mice affected on day indicated … Day 30”) is on record as 1/22. Also, in the data set with DBA/1 mice, the “No mice affected on day indicated (visual evidence of inflammation), Day 37” value (“No mice affected on day indicated … Day 37” below) is 1/22 and the “No mice affected on day indicated (visual evidence of inflammation), Day 44” value (from here on “No mice affected on day indicated … Day 44”) was 6/22. For the same compound, the “Avg. thickness of rear paws (mm) over days 30-44, Treated” value in the data set with DBA/1 mice (setting [4]) was found to be 2.128 mm. For the same compound, the “Avg. thickness of rear paws (mm) over days 30-44, Treated” value with DBA/1 mice (setting [5]) was found to be 2.34 mm. Besides, in the data set with DBA/1 mice (drug begun two days prior to administration of antigen versus starting drug at day 19), the “effectiveness of prophylactic regimen” value is reported as “more effective than starting drug at day 19”.
Regarding `Nc1nc(N)c2cc(CCc3ccc(C(=O)NC(CCC(=O)O)C(=O)O)cc3)cnc2n1` (stereo not drawn) [5,10-Dideazaaminopterin], the growth inhibition entry in the data set with L. casei and in the data set with S. faecium was “effective growth inhibitor” throughout. For the same compound, the “Ratio Of Cytotoxic Potency Versus Methotrexate For Inhibition Of Human Liver Cell Growth In Culture” value in data set [1] stood at 2.46.
As to `CC(Cc1cnc2nc(N)nc(N)c2c1)c1ccc(C(=O)NC(CCC(=O)O)C(=O)O)cc1` (stereo not drawn) [10-Me-5,10-Dideazaaminopterin], the “Ratio Of Cytotoxic Potency Versus Methotrexate For Inhibition Of Human Liver Cell Growth In Culture” value in data set [1] is reported as 2.69.
As for `Cc1c(CNc2ccc(C(=O)NC(CCC(=O)O)C(=O)O)cc2)cnc2nc(N)nc(N)c12` (stereo not drawn) [5-Me-10-H (5-Me-5-DA), 5-methyl-5-deazaaminopterin], the “Ratio Of Cytotoxic Potency Versus Methotrexate For Inhibition Of Human Liver Cell Growth In Culture” value in data set [1] is on record as 4.39. Further, in the data set on DBA/1 mice, the “No Mice on day indicated … Day 37” value is given as 2/8 and the “No Mice on day indicated … Day 44” value is 6/8.
Consider `Cc1c(CN(C)c2ccc(C(=O)N[C@@H](CCC(=O)O)C(=O)O)s2)cnc2nc(N)nc(N)c12` [Example C', N-[5-[[(2,4-Diamino-5-methylpyrido[2,3-d]pyrimidin-6-yl)methyl]methylamino]thiophene-2-carbonyl]-L-glutamic Acid], for which, in the data set on DBA/1 mice (setting [4]), the “Avg. thickness of rear paws (mm) over days 30-44, Treated” value is recorded as 2.13 mm. Further, the “Avg. thickness of rear paws (mm) over days 30-44, Treated” value in the data set with DBA/1 mice (setting [5]) is on record as 2.27 mm. In the data set with DBA/1 mice, the “No mice affected on day indicated … Day 30” value is recorded as 0/8; the “No mice affected on day indicated … Day 37” value was 1/8; the “No mice affected on day indicated … Day 44” value was 3/8.
On to `CCc1c(CNc2ccc(C(=O)NC(CCC(=O)O)C(=O)O)cc2)cnc2nc(N)nc(N)c12` (stereo not drawn) [5-Et-10-H (5-Et-5-DA)], for which the “Ratio Of Cytotoxic Potency Versus Methotrexate For Inhibition Of Human Liver Cell Growth In Culture” value in data set [1] was determined as 4.50. In addition, in the data set on DBA/1 mice, the “No Mice on day indicated … Day 30” value was 2/8; the “No Mice on day indicated … Day 37” value is 5/8; the “No Mice on day indicated … Day 44” value is given as 2/8.
Turning to `C#CCN(Cc1cnc2nc(N)nc(N)c2c1C)c1ccc(C(=O)NC(CCC(=O)O)C(=O)O)cc1` (stereo not drawn) [5-Me-10-Propargyl (5-Me-10-Prgl-5-DA), 10-propargyl-5-methyl-5-deazaaminopterin], the “Ratio Of Cytotoxic Potency Versus Methotrexate For Inhibition Of Human Liver Cell Growth In Culture” value in data set [1] is on record as 21.18. In addition, the “Ave. thickness of rear paws (mm) over days 30-44, Treated” value in the data set with DBA/1 mice (30 day measurement (first value in parentheses)) is on record as “(2.29-2.29) mm”. The “Ave. thickness of rear paws (mm) over days 30-44, Treated” value in the data set on DBA/1 mice (44 day measurement (second value in parentheses)) is “(2.29-2.29) mm”. In addition, in the data set with DBA/1 mice, the “No Mice on day indicated … Day 30” value is 3/8; the “No Mice on day indicated … Day 37” value was 3/8; the “No Mice on day indicated … Day 44” value was 2/8.
With `Cc1c(CN(C)c2ccc(C(=O)NC(CCC(=O)O)C(=O)O)cc2)cnc2nc(N)nc(N)c12` (stereo not drawn) [5-Me-10-Me (5-Me-5-DMTX), 5-methyl-5-deazamethotrexate], in data set [1], the “Ratio Of Cytotoxic Potency Versus Methotrexate For Inhibition Of Human Liver Cell Growth In Culture” value amounted to 2.79. Moreover, in the data set with DBA/1 mice, the “No Mice on day indicated … Day 30” value was 1/8; the “No Mice on day indicated … Day 37” value was 4/8; the “No Mice on day indicated … Day 44” value was 5/8.
On to `C=CCN(Cc1cnc2nc(N)nc(N)c2c1C)c1ccc(C(=O)NC(CCC(=O)O)C(=O)O)cc1` (stereo not drawn) [5-Me-10-Allyl (5-Me-10-Allyl-5-DA)], for which, in the data set with DBA/1 mice, the “No Mice on day indicated … Day 30” value was 0/8; the “No Mice on day indicated … Day 37” value is on record as 0/8; the “No Mice on day indicated … Day 44” value is 0/8.
Take `C#CCN(Cc1cnc2nc(N)nc(N)c2c1)c1ccc(C(=O)NC(CCC(=O)O)C(=O)O)cc1` (stereo not drawn) [5-H-10-Propargyl (10-Prgl-5-DA), 10-propargyl-5-deazaaminopterin]: in data set [1], the “Ratio Of Cytotoxic Potency Versus Methotrexate For Inhibition Of Human Liver Cell Growth In Culture” value is listed as 1.26. Further, in the data set on DBA/1 mice, the “No Mice on day indicated … Day 30” value was 3/8; the “No Mice on day indicated … Day 37” value is recorded as 2/8; the “No Mice on day indicated … Day 44” value is on record as 6/8.
In the same order, the values of `CCc1c(CN(C)c2ccc(C(=O)NC(CCC(=O)O)C(=O)O)cc2)cnc2nc(N)nc(N)c12` (stereo not drawn) [5-Et-10-Me (5-Et-5-DMTX)] are 3.18, 0/7, 1/7 and 1/7.
In the same order, the values of `CCCc1c(CNc2ccc(C(=O)N[C@@H](CCC(=O)O)C(=O)O)cc2)cnc2nc(N)nc(N)c12` [5-Pr-10-H (5-Pr-5-DA), N-[4-[[(2,4-Diamino-5-propylpyrido[2,3-d]pyrimidin-6-yl)methyl]amino]benzoyl]-L-glutamic Acid] are 1.78, 0/7, 0/7 and 0/7.
For the compound `CCc1c(CN(C)c2ccc(C(=O)N[C@@H](CCC(=O)O)C(=O)O)s2)cnc2nc(N)nc(N)c12` [Example D', N-[5-[[(2A-Diamino-5-ethylpyrido[2,3d] -pyrimidin-6-yl)methyl]methylamino]thiophene-2-carbonyl]-L-glutamic Acid], the “Avg. thickness of rear paws (mm) over days 30-44, Treated” value in the data set on DBA/1 mice (setting [4]) turned out to be 2.13 mm. The “Avg. thickness of rear paws (mm) over days 30-44, Treated” value in the data set with DBA/1 mice (setting [5]) is 2.32 mm. For the same compound, in the data set with DBA/1 mice, the “No mice affected on day indicated … Day 30” value was 2/8; the “No mice affected on day indicated … Day 37” value is 4/8; the “No mice affected on day indicated … Day 44” value is 7/8.
With `Cc1c(CNc2ccc(C(=O)N[C@@H](CCC(=O)O)C(=O)O)s2)cnc2nc(N)nc(N)c12` [Example B', N-[5-[[(2,4-Diamino-5-methylpyrido[2,3-d]pyrimidin-6-yl)methyl]amino]thiophene-2-carbonyl]-L-glutamic Acid], the “Avg. thickness of rear paws (mm) over days 30-44, Treated” value in the data set with DBA/1 mice (setting [4]) is 2.19 mm. In addition, in the data set with DBA/1 mice (setting [5]), the “Avg. thickness of rear paws (mm) over days 30-44, Treated” value was 2.33 mm. Also, in the data set with DBA/1 mice, the “No mice affected on day indicated … Day 30” value is 0/5; the “No mice affected on day indicated … Day 37” value is 2/5; the “No mice affected on day indicated … Day 44” value is 2/5.
Take `CCCCc1c(CNc2ccc(C(=O)N[C@@H](CCC(=O)O)C(=O)O)cc2)cnc2nc(N)nc(N)c12` [Compound 5-Bu-10-NH]: the “Ratio Of Cytotoxic Potency Versus Methotrexate For Inhibition Of Human Liver Cell Growth In Culture” value in data set [1] turned out to be 7.20.
Consider `Nc1nc(N)c2cc(CNc3ccc(C(=O)N[C@@H](CCC(=O)O)C(=O)O)cc3)cnc2n1` [L-5-deazaaminopterin], for which the “potency as inhibitor compared with methotrexate” value in data set [2] and in data set [3] was “equipotent with methotrexate” in each case. Moreover, the “in vivo potency compared with methotrexate” value in the data set with P388 leukemia and in the data set on L1210 was “equipotent with methotrexate” each time.

The values are drawn from patent EP0638079B1, “DEAZAAMINOPTERINS FOR TREATMENT OF INFLAMMATION” (SRI INTERNATIONAL, priority 1992, dated 1993).
